Reference: patent publication US12269800B2, “Delivery of therapeutic alkaloid compounds” (priority 2021, dated 2025)
pIC50: −log10 of the molar value. Read-outs that look alike come from different tables or passages of the source.

Key:
[1] = molecular target: T1, SERT (Homo sapiens, UniProt P31645); test: cell-based; conditions: stable 5HTT cells, 30 minutes at 37° C.
T1 construct: expressed in transfected cells

[2] = format: physicochemical; conditions: for Notes (stability in words): 0.5 mM, 0-24 h
Experimental: The hydrolysis kinetics was under a certain temperature and measured by LCMS at a certain time interval. The corresponding LCMS chromatograms were recorded and the conversions were calculated. The hydrolysis conditions and the data were summarized in below table. LCMS spectra were obtained using Agilent 1200G1956A or SHIMADZU LCMS-2020. Standard LCMS conditions were as follows (running time 1.55 minutes):
Acidic condition: Mobile Phase A: 0.0375% TFA in water (v/v). Mobile Phase B: 0.01875% TFA in acetonitrile (v/v); Column: Kinetex EVO C18 30*2.1 mm, 5 μm.
Basic condition: Mobile Phase A: 0.025% NH3—H2O in water (v/v). Mobile Phase B: Acetonitrile; Column: Kinetex EVO C18 2.1×30 mm, 5 μm.
Conversion (%)=peak area 1/(peak area 1+peak area 2)*100%, peak area 1 is the integration of hydrolyzed product, peak area 2 is the integration of starting material.

[3] = in vivo; cited from earlier work
[4] = Experimental: General Procedure for intravenous pharmacokinetic study in mice: Male C57/BL6 mice were used to evaluate each compound, with n=3 mice/time point. Animals were administered through intravenous route with solution formulation at 2 mg/kg dose. […] Following blood collection, immediately, animals were sacrificed, and vena-cava was cut open and blood was drained. […] Brain samples were collected from set of three mice at each time point. […] Brain samples were homogenized using 2 volumes of ice-cold PBS (pH-7.4) of brain weight. […] Concentrations of compound (or compound and metabolite) in mouse plasma and brain samples were determined by fit for purpose LC-MS/MS method.
Remark: listed apart in the source
[5] = Oral dose pharmacokinetic study in mice (10 mg/kg)
Experimental: Total thirty-five male mice were used for each study with n=5 mice/time point. Animals were administered through oral route with solution formulation at 10 mg/kg dose. The formulation vehicle used was normal saline. […] Brain samples were collected from set of five mice at 0.083, 0.25, 0.50, 1.0, 1.5, 2.0 and 3.0 h.
The plasma and brain concentration-time data of 001 was used for the pharmacokinetic analysis.

[6] = Plasma Stability Assay of Example A3, human plasma; conditions: % of prodrug compound remaining, 37° C., 0.0 min
[7] = Pharmacokinetics of 043 and 001 in mice after oral 043 (75 mg/kg); format: in vivo, male C57BL/6 mice; conditions: analyte as labelled, single oral administration of 043, 75 mg/kg
Experimental: Total twelve male mice were used in this study. […] The formulation vehicle used was normal saline.
The plasma and brain concentration-time data of 043 and 001 was used for the pharmacokinetic analysis.
The extraction procedure for plasma/brain samples and the spiked plasma/brain calibration standards were identical:
A 25 μL of study sample plasma/brain (dilution applied to some samples) or spiked plasma calibration standard was added to individual pre-labeled micro-centrifuge tubes followed by 100 μL of internal standard prepared in acetonitrile (Glipizide-500 ng/mL) was added except for blank, where 100 μL of acetonitrile was added. Samples were vortexed for 5 minutes. Samples were centrifuged for 10 minutes at a speed of 4000 rpm at 4° C. Following centrifugation, 100 μL of clear supernatant was transferred in 96 well plates and analyzed using LC-MS/MS.

[8] = Plasma Stability Assay of Example A3, mouse plasma; conditions: % of prodrug compound remaining, 37° C., 0.0 min
[9] = format: physicochemical; conditions: DI water, 25° C., 0.5 mM
[10] = 2 mg/kg iv in rat
Experimental: Brain samples were homogenized with PBS (W/V, 1:3). Plasma/brain samples were mixed with acetonitrile containing internal standard. The samples were vortexed then centrifuged at 4 degrees Celsius for 15 minutes. The supernatant was diluted with water (1:2 V/V) and analyzed by LC/MS/MS for quantitative analysis. […] Area under the curve (AUC) was calculated and divided by dose to account for molecular weight difference of prodrug and metabolite (AUC/D).

[11] = Hydrolysis Assay of Example A2, Condition 1 (SGF with pepsin, pH 1.5, 37° C.); format: physicochemical; conditions: SGF with pepsin pH 1.5, 37° C., 0.5 mM
[12] = fermentation, exposure to light, exposure to heat, aqueous medium; cited from earlier work
[13] = 10 mg/kg po of the labelled compound in mice

T1 sequence (P31645 whole entry, species assumed): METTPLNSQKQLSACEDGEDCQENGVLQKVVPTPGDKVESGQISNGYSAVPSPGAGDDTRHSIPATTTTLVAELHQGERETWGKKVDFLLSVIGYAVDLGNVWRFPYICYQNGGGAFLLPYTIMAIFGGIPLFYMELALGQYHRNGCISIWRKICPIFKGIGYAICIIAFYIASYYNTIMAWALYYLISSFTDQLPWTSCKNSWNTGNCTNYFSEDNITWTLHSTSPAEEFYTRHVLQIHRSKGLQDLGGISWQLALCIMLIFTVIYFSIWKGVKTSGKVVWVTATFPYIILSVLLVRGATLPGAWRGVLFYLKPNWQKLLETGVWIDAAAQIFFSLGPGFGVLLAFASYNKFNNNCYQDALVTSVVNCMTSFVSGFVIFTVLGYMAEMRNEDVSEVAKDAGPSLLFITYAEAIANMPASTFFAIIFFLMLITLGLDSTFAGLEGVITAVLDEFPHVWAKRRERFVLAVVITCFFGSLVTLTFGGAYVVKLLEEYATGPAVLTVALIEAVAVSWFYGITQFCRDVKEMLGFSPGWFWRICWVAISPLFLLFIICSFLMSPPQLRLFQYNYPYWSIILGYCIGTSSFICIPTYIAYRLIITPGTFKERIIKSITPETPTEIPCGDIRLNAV

COc1ccc([C@@]23CCC(=NO)C[C@@H]2N(C)CC3)cc1OC (mixture of isomers) [Compound 037]
pIC50 [1]: > 7.30 | conversion to mesembrine ([2]; acidic pH 2.0, 25 or 37° C.): converted to mesembrine

COc1ccc([C@@]23CCC(=O)C[C@@H]2N(C)CC3)cc1OC [(−) mesembrine]
half-life in plasma [3]: less than 2 hours

COc1ccc([C@@]23CCC(=O)C[C@@H]2N(C)CC3)cc1OC [Compound 001, mesembrine, reference compound]
001 quantifiable in brain up to ([4]; 2 mg/kg iv of the labelled compound in mice): 60 min | plasma levels of 001 ([4]; at 60, 120, 180 min, 2 mg/kg iv in mice): not detectable | brain levels of 001 ([4]; at 120, 180 min, 2 mg/kg iv in mice): not detectable | Human Plasma Prodrug (%): >99% | 001 quantifiable in brain up to [5, 13]: 60 min | 001 quantifiable in plasma up to [5, 13]: 2 h | brain levels of 001 ([5]; at 90, 120, 180 min, 10 mg/kg po in mice): not detectable | plasma levels of 001 ([5]; at 180 min, 10 mg/kg po in mice): not detectable | bioavailability ([5]; male, C57BL/6, mouse, plasma, po, 10 mg/kg): < 10% | Notes (stability in words) ([2]; PH = 7.4, 25° C., PBS (20 mM)): Stable | Notes (stability in words) ([2]; PH = 7.4, 40° C., PBS (20 mM)): Stable | hydrolysis ([2]; pH 2.0 in 0.01 M HCl to pH 7.4 in 20 mM PBS, 25° C. to 40° C.): did not further hydrolyze | Notes (stability in words) ([2]; pH = 2.0, 25° C., 0.01M HCl): Stable | Notes (stability in words) ([2]; pH = 2.0, 40° C., 0.01M HCl): Stable | Human Plasma Prodrug (%) [6]: 100.0% | brain concentrations quantifiable up to [7]: 4 h | Kp ([7]; male, C57BL/6, mouse, brain, read-out: brain exposure-Kp): 2.55 | Tmax ([7]; male, C57BL/6, mouse, plasma, read-out: Tmax): 30 min | Mouse Plasma Prodrug (%) [8]: 100.0%

CCC(C)CC(=O)OC1=C[C@@H]2N(C)CC[C@]2(c2ccc(OC)c(OC)c2)CC1 (stereo partly drawn) [Compound 316, [(3aS,7aS)-3a-(3,4-dimethoxyphenyl)-1-methyl-3,4,5,7a-tetrahydro-2H-indol-6-yl]3-methyl pentanoate]
Condition 2 Conversion (%) ([9]; time 1 min): 0% | Condition 2 Conversion (%) ([9]; time 5 min): 0% | Condition 2 Conversion (%) ([9]; time 30 min): 0% | Condition 2 Conversion (%) ([9]; time 1 h): 0% | Condition 2 Conversion (%) ([9]; time 4 h): 0% | Condition 2 Conversion (%) ([9]; time 24 h): 0% | conversion to 001 in vivo [10]: converts to 001 in vivo | Condition 1 Conversion (%) ([11]; time 1 min): 0% | Condition 1 Conversion (%) ([11]; time 5 min): 0% | Condition 1 Conversion (%) ([11]; time 30 min): 0% | Condition 1 Conversion (%) ([11]; time 1 h): 0% | Condition 1 Conversion (%) ([11]; time 4 h): 0% | Condition 1 Conversion (%) ([11]; time 24 h): 0%

COc1ccc([C@@]23CCC(=O)C[C@@H]2N(C)CC3)cc1OC [mesembrine]
stability [12]: unstable
